Assay results as given in patent US9968566B2, “Pharmaceutical composition for prophylaxis and/or treatment of corneal and conjunctival diseases or presbyopia containing stilbene compound as active ingredient” (KEIO UNIVERSITY, priority 2014, dated 2018).

Key:
crystalline lens = assay: Smoking rat presbyopia model (Example 3): crystalline lens hardness; type: in vivo, Sprague-Dawley rats; conditions: smoking rats, 300 μM PBS solution, 5 μL instilled 4 times per day for 11 days; smoking group 1.04±0.05, non-smoking 0.75±0.04
Description: Six-week-old male Sprague-Dawley rats were subjected to smoking treatment to develop dry-eye, presbyopia models. Specifically, a treatment in which mainstream smoke (300 mL) was added to a rat-containing chamber 6 times at 30-minute intervals was performed for 12 days to induce keratoconjunctival epithelial damage. […] Each group consisted of 4 animals (8 eyes). After the 11-day smoking treatment, the body weight, tear volume, fluorescent staining score, and crystalline lens hardness were measured. • 0: not stained (no punctate fluorescence) • 1: weak punctate fluorescence • 2: relatively intense punctate fluorescence • 3: strong punctate fluorescence The crystalline lens hardness was measured by combining an electronic weighing scale and height gauge. A crystalline lens whose minor axis length had been previously measured was placed on an electronic weighing scale, and the weight was set to 0. The handle of a height gauge was used above the crystalline lens to allow the end portion to be in contact with the crystalline lens. Further using the handle, the end portion was lowered about 5 to 10% of the minor axis length to apply a pressure on the crystalline lens. The change in the weight at this time was measured with the electronic weighing scale, and the weight was divided by the moving distance measured with the height gauge. The resulting value was considered to be hardness. A larger value represents more hardness. For statistical analysis of the body weight, tear volume, and crystalline lens hardness, a significant difference test was performed using the Dunnett method in terms of each group with respect to the smoking group.

[1] = Electron spin resonance (ESR) measurement test, amount of tyrosine radical; type: biochemical; conditions: 5 μM, 50 μM and 500 μM added to standard solution; activity order R<DR<DHR
Description: (§1) Resveratrol (R), as well as dimethyl resveratrol (DR) and dimethylhydroxy resveratrol (DHR), which are compounds of the present invention, were added to radicals serving as standard substances, and the amounts of remaining tyrosine radicals and hydroxyl radicals were assessed. Specifically, a standard solution comprising a 50 mM NaPi buffer (pH 7.4), 10 mM DMPO, 1.6 mM myoglobin, and 1 mM H2O2 was prepared using myoglobin as a tyrosine radical. Further, a standard solution comprising a 50 mM NaPi buffer (pH 7.4), 10 mM DMPO, 0.1 mM Fe^2+-EDTA, and 1 mM H2O2 was prepared using Fe^2+-EDTA as a hydroxyl radical. […] The ESR was set as follows: microwave power: 10 mW; adjusted frequency: 100 KHz; adjusted magnetic field: 0.1 G; receiver gain: 1000; and time constant: 0.3 s. FIGS. 1(A) and 1(B) show the results.

[2] = test system: keratoconjunctival epithelial damage caused by dry eye; assay: Therapeutic efficacy test using smoking rat (Example 5), comparison with Diquas; type: in vivo, Sprague-Dawley rats
Description: In this experiment, both eyes of each animal were used. The same drug solution was administered to both eyes of each animal, and a comparison was made among groups. Six-week-old male Sprague-Dawley rats were subjected to smoking treatment to develop dry-eye models. Specifically, a treatment in which mainstream smoke (300 mL) was added to a rat-containing chamber 6 times at 30-minute intervals was performed for 12 days to induce a keratoconjunctival epithelial damage. […] The tear volume and fluorescent staining score were measured in accordance with the method described in Example 3. For statistical analysis, a significant difference test was performed using the Dunnett method in terms of each group with respect to the smoking group.

[3] = Measurement of radical scavenging activity (galvinoxyl radical, stopped flow method); type: biochemical; conditions: acetonitrile, deaerated with argon, absorbance at 428 nm
Description: Unlike active oxygen, a galvinoxyl radical (GO•), which is a relatively stable organic oxygen radical having a characteristic peak absorption at 428 nm, may be used to perform kinetic analysis in terms of the radical scavenging ability of antioxidants using ultraviolet visible spectroscopy.
In this experiment, the radical scavenging rate was measured by a stopped flow method. The following reagent was used: • Acetonitrile (Nacalai Tesque, Inc., 00433-95); and • Galvinoxyl Radical (Aldrich, G30-7).
A solution of GO• in acetonitrile (about 2.4×10^−6 M) was bubbled with argon for 7 minutes to remove molecular oxygen. […] Subsequently, the acetonitrile solutions of GO• and the compounds were simultaneously mixed to measure changes in the peak absorption of GO• (at 428 nm) over time by a stopped flow method.
Under conditions in which the concentration of each antioxidant is 10 times or more than that of GO• ([Antioxidant agent]>10[GO•]), the reduction in the absorbance at 428 nm derived from GO• follows the pseudo-first-order kinetics (equation (1)) with respect to the concentration of each antioxidant agent (antioxidant): −d[GO•]/dt=kobs[GO•] […] Integration of both sides of equation (1) leads to equation (2): ln([GO•]/[GO•]0)=−kobst (2), wherein [GO•]o is a concentration of GO• when t=0. […]

[4] = Electron spin resonance (ESR) measurement test, amount of hydroxyl radical; type: biochemical; conditions: 5 μM, 50 μM and 500 μM added to standard solution; activity order R<DR<DHR
Description: as §1

[5] = test system: keratoconjunctival epithelial damage caused by dry eye; assay: Therapeutic efficacy test using smoking rat (Example 3): tear volume and fluorescein staining score; type: in vivo, Sprague-Dawley rats; conditions: smoking rats, 300 μM PBS solution, 5 μL instilled 4 times per day for 11 days
Description: In this experiment, both eyes of each animal were used. The same drug solution was administered to both eyes of each animal, and a comparison was made among groups.
Six-week-old male Sprague-Dawley rats were subjected to smoking treatment to develop dry-eye, presbyopia models.
Specifically, a treatment in which mainstream smoke (300 mL) was added to a rat-containing chamber 6 times at 30-minute intervals was performed for 12 days to induce keratoconjunctival epithelial damage. […] Each group consisted of 4 animals (8 eyes).
After the 11-day smoking treatment, the body weight, tear volume, fluorescent staining score, and crystalline lens hardness were measured.
To determine the tear volume, tears accumulated in the cornea of rat were measured in accordance with the cotton thread test. Specifically, after the rats were anesthetized with ocular instillation of oxybuprocaine hydrochloride, a cotton thread was inserted between the palpebra and eyeball for 60 seconds, and tears were collected. The tear volume was assessed by measuring the length (mm) of the wet portion in the cotton thread.
After the completion of ocular instillation, a damaged portion in corneal epithelium was stained with a fluorescent dye (fluorescein). Then, the degree of corneal epithelial damage was assessed based on the following criteria by scoring each section of the entire cornea, which was divided into a total of 9 sections, i.e., upper, middle, and lower, and left, center, and right sections, and calculating the total value. Thereafter, the score values were compared among the groups for analysis. For statistical analysis, a significant difference test was performed by using the Dunnett method in terms of each group with respect to the smoking group. For unbiased evaluation, the content of the drug solution administered to each group was blinded from the initiation of ocular instillation to the scoring of the corneal epithelial damage, and collated after scoring.
Evaluation Criteria for Scoring of Fluorescein Staining of Corneal Epithelium
• 0: not stained (no punctate fluorescence) • 1: weak punctate fluorescence • 2: relatively intense punctate fluorescence • 3: strong punctate fluorescence The crystalline lens hardness was measured by combining an electronic weighing scale and height gauge. A crystalline lens whose minor axis length had been previously measured was placed on an electronic weighing scale, and the weight was set to 0. The handle of a height gauge was used above the crystalline lens to allow the end portion to be in contact with the crystalline lens. Further using the handle, the end portion was lowered about 5 to 10% of the minor axis length to apply a pressure on the crystalline lens. The change in the weight at this time was measured with the electronic weighing scale, and the weight was divided by the moving distance measured with the height gauge. The resulting value was considered to be hardness. A larger value represents more hardness.
For statistical analysis of the body weight, tear volume, and crystalline lens hardness, a significant difference test was performed using the Dunnett method in terms of each group with respect to the smoking group.

[6] = Stability test at 25° C. and 60% RH, amount by HPLC; type: physicochemical
Description: After a constant period of time, the amount of each compound was measured by HPLC to evaluate the stability. The amount of the compound was calculated in accordance with: (The amount of compound after a constant period of time)/(the amount of compound at the time when the test was initiated)×100(%).

corneal epithelium = assay: Safety test: hematoxylin-eosin staining of rat cornea; type: in vivo; conditions: 300 μM PBS solution, treated for one week
From the text: FIGS. 8(A) and 8(B) show photographs of each tissue section.

C/C(=C(/C)c1cc(O)cc(O)c1)c1ccc(O)cc1 [DR, (E)-5-[3-(4-hydroxyphenyl)but-2-en-2-yl]benzene-1,3-diol]
crystalline lens elasticity (hardness; larger value = harder) (crystalline lens): 0.86±0.06 | radical generation (amount of tyrosine radical, ESR) [1]: reduced radical generation in a concentration-dependent manner | body weight ([2]; smoking rats after 11-day treatment, instilled 5 μL 4 times per day, smoking group 280.0±5.8): 271.0 ± 7.5 g | average fluorescein score (fluorescent staining score) ([2]; smoking rats, DR 300 μM in PBS or Diquas 3%, 5 μL 4 times per day for 11 days, smoking group 4.6±1.2, non-smoking 1.2±1.2): 2.1±0.8 | tear volume (cotton thread test) ([2]; smoking rats, DR 300 μM in PBS or Diquas 3%, 5 μL 4 times per day for 11 days, smoking group 11.3±9.0, non-smoking 17.6±9.1): 19.3±11.2 mm | radical scavenging activity (constant kHT of rate of hydrogen transfer to GO•) [3]: 0.96 M⁻¹ s⁻¹ | radical generation (amount of hydroxyl radical, ESR) [4]: reduced radical generation in a concentration-dependent manner | average fluorescein score (fluorescent staining score) ([5]; smoking group 3.7±1.0, non-smoking 0.8±1.0): 2.3±0.5 | tear volume (cotton thread test, length of wet portion) ([5]; smoking group 10.0±5.0, non-smoking 14.0±9.1): 8.3±4.9 mm | amount of compound remaining, average ([6]; 168 h): 99% | amount of compound remaining, average ([6]; 336 h): 98% | amount of compound remaining, average ([6]; 504 h): 96% | amount of compound remaining, average ([6]; 672 h): 94% | amount of compound remaining, average ([6]; buffer, 24 h, 10 mM): 99% | amount of compound remaining, average ([6]; buffer, 48 h, 10 mM): 96% | amount of compound remaining, average ([6]; buffer, 72 h, 10 mM): 94% | amount of compound remaining, average ([6]; buffer, 168 h, 10 mM): 88% | amount of compound remaining, average ([6]; buffer, 336 h, 10 mM): 76% | morphological effects on the corneal epithelium (HE staining) (corneal epithelium): did not show morphological effects on the corneal epithelium
